Assay [1] concerns SD rats. The assay can be described thus: Gastric ulcer model (diclofenac-induced ulcer in gastric corpus). The following applies: 1 hour before diclofenac 40 mg/kg oral, measured 6 hours after diclofenac. The format is in vivo. How it is done: A test compound was suspended in a 0.5% methyl cellulose (MC) solution to prepare a chemical liquid having a concentration 5 ml/kg; and this was orally administered to SD rats (n=12 in each group). The test compound was controlled to be 10 mg/kg or 30 mg/kg. A control group was separately prepared, in which 5 ml/kg of the 0.5% MC solution was orally administered to the rats. After 1 hour, 40 mg/kg of NSAID, diclofenac (by Sigma) was orally administered to all rats of all groups, as a suspension in 0.5% MC solution (5 ml/kg). In 6 hours after the diclofenac administration, the length of the ulcer formed in the gastric corpus was measured using a stereomicroscope (by Nikon) and a micrometer (by Olympus), and the data of 12 cases were averaged. The antiulceration potency (%) of the test compound was computed according to the following formula: Antiulceration Potency (%): [1−(mean ulcer length of compound-administered group/mean ulcer length of 0.5% MC-administered group)]×100.

The target of assay [2] is T1, xanthine oxidase (derived from butter milk, by Sigma) (Bos taurus, UniProt P80457).
T1 construct: xanthine oxidase (derived from butter milk, by Sigma); purchased Sigma; host or cells: butter milk (natural source)
T1 sequence (P80457 whole entry): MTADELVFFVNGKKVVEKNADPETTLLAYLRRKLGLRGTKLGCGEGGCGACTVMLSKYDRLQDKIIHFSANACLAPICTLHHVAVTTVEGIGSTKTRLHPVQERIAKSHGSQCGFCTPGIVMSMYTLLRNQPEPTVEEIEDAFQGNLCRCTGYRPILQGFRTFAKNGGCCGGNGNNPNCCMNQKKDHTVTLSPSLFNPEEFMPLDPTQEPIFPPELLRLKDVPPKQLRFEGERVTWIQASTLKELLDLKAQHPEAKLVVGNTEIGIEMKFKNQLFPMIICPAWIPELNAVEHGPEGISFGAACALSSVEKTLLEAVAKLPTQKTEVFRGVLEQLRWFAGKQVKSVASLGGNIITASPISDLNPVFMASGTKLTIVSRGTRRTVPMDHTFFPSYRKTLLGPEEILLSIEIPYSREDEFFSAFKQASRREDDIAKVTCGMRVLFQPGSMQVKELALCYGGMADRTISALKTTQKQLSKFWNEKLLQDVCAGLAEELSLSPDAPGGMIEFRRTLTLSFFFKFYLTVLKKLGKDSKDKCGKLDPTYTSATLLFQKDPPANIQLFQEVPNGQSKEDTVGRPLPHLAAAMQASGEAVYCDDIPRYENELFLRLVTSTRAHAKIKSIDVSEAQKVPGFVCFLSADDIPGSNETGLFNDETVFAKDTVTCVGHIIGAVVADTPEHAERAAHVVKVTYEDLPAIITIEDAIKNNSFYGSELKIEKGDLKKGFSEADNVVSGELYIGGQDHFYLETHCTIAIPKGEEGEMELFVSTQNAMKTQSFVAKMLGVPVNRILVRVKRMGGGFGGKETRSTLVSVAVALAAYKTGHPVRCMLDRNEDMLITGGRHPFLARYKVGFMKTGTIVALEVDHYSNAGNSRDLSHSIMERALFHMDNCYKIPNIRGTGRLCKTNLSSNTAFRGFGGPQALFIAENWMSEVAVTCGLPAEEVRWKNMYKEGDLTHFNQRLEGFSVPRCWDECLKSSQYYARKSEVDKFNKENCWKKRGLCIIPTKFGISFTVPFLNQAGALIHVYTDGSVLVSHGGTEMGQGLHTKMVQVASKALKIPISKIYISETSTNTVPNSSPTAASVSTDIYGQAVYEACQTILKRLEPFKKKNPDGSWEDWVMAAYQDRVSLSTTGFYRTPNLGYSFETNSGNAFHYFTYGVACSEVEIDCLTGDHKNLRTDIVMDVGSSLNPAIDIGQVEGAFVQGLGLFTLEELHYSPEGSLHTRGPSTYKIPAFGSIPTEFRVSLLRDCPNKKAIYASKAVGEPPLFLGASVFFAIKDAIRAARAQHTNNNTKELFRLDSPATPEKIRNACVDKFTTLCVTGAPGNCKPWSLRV
The assay can be described thus: Xanthine oxidase inhibiting activity (pterin fluorescence assay). It is filed as biochemical. The following applies: xanthine oxidase 0.03 units/ml, pterin 5 μM, room temperature. The method, then: A test compound was dissolved in DMSO (by Nacalai) to have a concentration of 10 mM, and then just before use, its concentration was adjusted to a desired one.
The xanthine oxidase inhibitory activity of the compound of the present invention was evaluated according to a partly modified method of a method described in a reference “Free Radic. Biol. Med. 6, 607-615, 1992”. Concretely, xanthine oxidase (derived from butter milk, by Sigma) was mixed with 50 mM phosphate buffer to be 0.03 units/ml, and applied to a 96-well plate in an amount of 50 μl/well. The test compound diluted to have a final concentration was added to the plate in an amount of 2 μl/well, and processed at room temperature for 20 minutes. Pterin (by Sigma) was added to it to have a final concentration of 5 μM in an amount of 50 μl/well, and reacted at room temperature for 10 minutes. Under a condition of excitation at 345 nm and emission at 390 nm (pterin is oxidized by xanthine oxidase to give isoxanthopterin, and under the condition it emits light), the sample was analyzed using a microplate reader sapphire (by Tacan).
The light emission by isoxanthopterin in the presence or absence of xanthine oxidase was defined as 0% inhibition and 100% inhibition, respectively, and the concentration (IC50) of the test compound for 50% inhibition was computed.

Assay [3] relates to SD rats. The assay can be described thus: Small intestine ulcer model (indomethacin-induced ulcer). It is filed as in vivo. The following applies: 10 mg/kg oral, 1 hour before and 9 hours after indomethacin 10 mg/kg oral, measured after 24 hours. The method, then:
A test compound was suspended in a 0.5% methyl cellulose (MC) solution to prepare a chemical liquid having a concentration 5 ml/kg; and this was orally administered to SD rats (n=10 in each group). The test compound was controlled to be 10 mg/kg in every case. A control group was separately prepared, in which 5 ml/kg of the 0.5% MC solution was orally administered to the rats. After 1 hour, 10 mg/kg of NSAID, indomethacin (by Sigma) was orally administered to the rats, as a suspension in 0.5% MC solution (5 ml/kg). In 9 hours after the indomethacin administration, the test compound was again orally administered to every rat in the same amount as previously; and after 24 hours, the area of the ulcer formed in the small intestine was measured using a stereomicroscope (by Nikon) and a micrometer (by Olympus), and the data of 10 cases were averaged. The antiulceration potency (%) of the test compound was computed according to the following formula: Antiulceration Potency (%): [1−(mean ulcer area of compound-administered group/mean ulcer area of 0.5% MC-administered group)]×100.

The structures appear in SMILES notation. Bounds are passed on as bounds.

Consider `Cc1nc(-c2ccc(OCC(C)C)c(C#N)c2)sc1C(=O)O` [Compound A, 2-(3-cyano-4-isobutyloxyphenyl)-4-methyl-1,3-thiazole-5-carboxylic acid], for which the “Antiulceration potency (inhibitory potency), mean ulcer length in gastric corpus vs 0.5% MC group” value in assay [1] (30 mg/kg oral) stood at 36%.
On the same count and under the same terms, in the case of `CC(C)(C)COc1ccc(-n2cc(C(=O)O)cn2)cc1C#N` [Compound B, 1-(3-cyano-4-neopentyloxyphenyl)-1H-pyrazole-4-carboxylic acid] it was 43%.
For orientation: IC50 means the concentration at which inhibition is half-maximal. For `CC(C)COc1ccc(-c2cc(C(=O)O)ccn2)cc1C(F)(F)F` [Example 30], in assay [2], the IC50 came to 6.3 nM.
On the same count and under the same terms, with `CC(C)CSc1ccc(-c2cc(C(=O)O)ccn2)cc1C#N` [Example 53] the figure was 2.5 nM; with `N#Cc1cc(-c2ccc(C(=O)O)s2)cc(F)c1OC1CCCC1` [Example 119], 1.5 nM.
`Oc1ncnc2[nH]ncc12` [allopurinol, reference compound]: the “Antiulceration potency (inhibitory potency), mean ulcer length in gastric corpus vs 0.5% MC group” value in assay [1] (30 mg/kg oral) was “no inhibitory potency was confirmed”. Also, in assay [3], the “Antiulceration potency (inhibitory potency), mean ulcer area in small intestine vs 0.5% MC group” value is on record as “no inhibitory potency was confirmed”.
With `N#Cc1cc(-c2cc(C(=O)[O-])ccn2)ccc1-c1ccccc1.[Na+]` [compound 8], the “Antiulceration potency (inhibitory potency), mean ulcer length in gastric corpus vs 0.5% MC group” value in assay [1] (30 mg/kg oral) came out at 72%. The “Antiulceration potency (inhibitory potency), mean ulcer area in small intestine vs 0.5% MC group” value in assay [3] is 29%.
In assay [2], `N#Cc1cc(-c2cc(C(=O)O)ccn2)ccc1-c1ccc(F)cc1` [compound 133] yielded an IC50 of at most 20 nM.
The molecule `COc1ccccc1-c1ccc(-c2cc(C(=O)O)ccn2)cc1C#N` [compound 138] returned an IC50 in assay [2] of at most 20 nM.
The same measure, in the same setting: in the case of `N#Cc1cc(-c2cc(C(=O)O)ccn2)ccc1-c1ccsc1` [compound 141] it was at most 20 nM; in that of `N#Cc1ccc(-c2ccc(-c3cc(C(=O)O)ccn3)cc2C#N)cc1` [compound 143], at most 20 nM.
The same measure, in the same setting: with `N#Cc1cc(-c2cc(C(=O)O)ccn2)ccc1-c1ccco1` [compound 145] the figure was at most 20 nM; with `CC(C)(C)c1ccc(-c2ccc(-c3cc(C(=O)O)ccn3)cc2C#N)cc1` [compound 153], at most 20 nM.
On the same count and under the same terms, with `N#Cc1cc(-c2cc(C(=O)O)ccn2)ccc1-c1ccc(Oc2ccccc2)cc1` [compound 166] the figure was at most 20 nM.
In the case of `N#Cc1cc(-c2cc(C(=O)O)ccn2)ccc1-c1ccc2c(c1)OCO2` [compound 169], the IC50 in assay [2] is at most 20 nM.
Still for that read-out and setting: in the case of `N#Cc1cc(-c2cc(C(=O)O)ccn2)ccc1-n1ncc2ccccc21` [compound 179] it was at most 20 nM.
`Cc1nc(-c2ccc(-c3ccccc3)c(C#N)c2)sc1C(=O)O` [compound 237] registered an IC50 in assay [2] of at most 20 nM. Further, the “Antiulceration potency (inhibitory potency), mean ulcer length in gastric corpus vs 0.5% MC group” value in assay [1] (10 mg/kg oral) is recorded as 32%. Also, the “Antiulceration potency (inhibitory potency), mean ulcer area in small intestine vs 0.5% MC group” value in assay [3] came out at 59%.
In assay [2], `Cc1nc(-c2ccc(-c3ccc(OC(F)(F)F)cc3)c(C#N)c2)sc1C(=O)O` [compound 240] showed an IC50 of at most 20 nM.
On the same count and under the same terms, in the case of `Cc1cccc(-c2ccc(-c3nc(C)c(C(=O)O)s3)cc2C#N)c1` [compound 243] it was at most 20 nM.
`N#Cc1cc(-c2ncc(C(=O)O)s2)ccc1-c1ccccc1` [compound 250] registered a concentration for half-maximal inhibition (IC50) in assay [2] of at most 20 nM. For the same molecule, in assay [3], the “Antiulceration potency (inhibitory potency), mean ulcer area in small intestine vs 0.5% MC group” value was found to be 73%.
Consider `N#Cc1cc(-n2cc(C(=O)O)cn2)ccc1-c1ccccc1` [compound 251], for which the 50% inhibitory concentration (IC50) in assay [2] was at most 20 nM. Moreover, the “Antiulceration potency (inhibitory potency), mean ulcer length in gastric corpus vs 0.5% MC group” value in assay [1] (30 mg/kg oral) turned out to be 43%. Also, the “Antiulceration potency (inhibitory potency), mean ulcer area in small intestine vs 0.5% MC group” value in assay [3] was found to be 41%.
`Cc1ccc(-c2ccc(-n3cc(C(=O)O)cn3)cc2C#N)cc1` [compound 252]: in assay [2], the IC50 is at most 20 nM.

The record behind these values is patent US8426453B2 (Astellas Pharma Inc., priority 2006, dated 2013).
